According to ChEMBL document CHEMBL1136058, “4-Anilino-3-cyanobenzo[g]quinolines as kinase inhibitors” (Bioorg Med Chem Lett, 2002):
One block for each compound: values may come before it.

Tests used:
LoVo = assay: Inhibition of LOVO cell proliferation; conditions: Homo sapiens
[1] = target: Dual specificity mitogen-activated protein kinase kinase 1 (Homo sapiens, UniProt Q02750); assay: Inhibition of Dual specificity mitogen-activated protein kinase kinase (MEK-1)
[2] = target: T1, Proto-oncogene tyrosine-protein kinase Src (Homo sapiens, UniProt P12931); assay: Inhibition of Src protein tyrosine kinase at 0.1 uM
T1 sequence (P12931 2-536 limits assumed): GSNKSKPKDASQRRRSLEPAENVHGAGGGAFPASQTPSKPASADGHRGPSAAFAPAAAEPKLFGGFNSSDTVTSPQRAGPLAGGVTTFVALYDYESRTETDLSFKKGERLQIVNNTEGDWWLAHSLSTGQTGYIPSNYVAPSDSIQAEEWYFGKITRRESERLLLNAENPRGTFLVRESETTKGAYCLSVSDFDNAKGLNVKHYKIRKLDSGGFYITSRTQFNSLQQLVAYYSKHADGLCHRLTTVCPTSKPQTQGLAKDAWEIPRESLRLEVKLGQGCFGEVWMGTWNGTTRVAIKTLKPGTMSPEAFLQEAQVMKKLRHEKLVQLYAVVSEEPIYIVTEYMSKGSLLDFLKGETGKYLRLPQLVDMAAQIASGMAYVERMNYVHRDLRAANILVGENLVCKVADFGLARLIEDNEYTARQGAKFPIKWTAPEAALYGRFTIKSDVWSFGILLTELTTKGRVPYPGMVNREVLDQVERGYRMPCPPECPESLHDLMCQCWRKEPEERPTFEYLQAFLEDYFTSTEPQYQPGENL

[3] = target: T1, Proto-oncogene tyrosine-protein kinase Src; assay: Inhibition of Src protein tyrosine kinase at 0.01 uM
[4] = target: Epidermal growth factor receptor (Homo sapiens, UniProt P00533); assay: Inhibition of epidermal growth factor receptor (EGFR)
Epidermal growth factor receptor, sequence (P00533 whole entry): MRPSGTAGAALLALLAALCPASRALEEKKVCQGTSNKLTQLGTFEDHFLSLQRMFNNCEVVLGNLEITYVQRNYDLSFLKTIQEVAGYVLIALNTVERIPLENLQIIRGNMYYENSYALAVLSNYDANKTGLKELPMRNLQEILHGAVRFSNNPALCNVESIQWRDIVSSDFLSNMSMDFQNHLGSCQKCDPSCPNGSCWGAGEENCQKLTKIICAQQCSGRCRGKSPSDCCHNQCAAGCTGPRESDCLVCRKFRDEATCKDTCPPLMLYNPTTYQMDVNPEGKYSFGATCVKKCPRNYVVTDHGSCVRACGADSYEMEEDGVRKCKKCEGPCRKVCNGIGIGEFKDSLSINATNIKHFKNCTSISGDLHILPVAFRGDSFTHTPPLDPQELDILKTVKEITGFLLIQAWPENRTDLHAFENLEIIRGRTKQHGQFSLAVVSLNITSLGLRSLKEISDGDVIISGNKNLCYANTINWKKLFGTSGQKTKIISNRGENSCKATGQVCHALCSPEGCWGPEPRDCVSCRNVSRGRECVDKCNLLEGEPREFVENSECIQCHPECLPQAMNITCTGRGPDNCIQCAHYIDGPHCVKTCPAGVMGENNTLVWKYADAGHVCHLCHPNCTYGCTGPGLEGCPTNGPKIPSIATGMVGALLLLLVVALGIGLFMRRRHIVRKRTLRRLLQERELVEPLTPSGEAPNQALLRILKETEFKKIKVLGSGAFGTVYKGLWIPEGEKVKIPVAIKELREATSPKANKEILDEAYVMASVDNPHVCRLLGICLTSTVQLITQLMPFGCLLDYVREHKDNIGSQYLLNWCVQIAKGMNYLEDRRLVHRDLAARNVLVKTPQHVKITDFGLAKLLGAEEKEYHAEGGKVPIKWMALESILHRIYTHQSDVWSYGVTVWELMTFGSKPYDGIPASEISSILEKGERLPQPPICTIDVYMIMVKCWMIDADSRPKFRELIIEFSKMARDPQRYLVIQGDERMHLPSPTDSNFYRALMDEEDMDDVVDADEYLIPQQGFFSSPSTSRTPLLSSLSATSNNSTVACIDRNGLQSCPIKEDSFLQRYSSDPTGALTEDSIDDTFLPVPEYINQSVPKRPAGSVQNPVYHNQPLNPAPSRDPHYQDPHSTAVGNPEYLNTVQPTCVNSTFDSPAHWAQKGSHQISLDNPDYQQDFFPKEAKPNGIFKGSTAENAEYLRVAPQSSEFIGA

SW-620 = assay: Inhibition of SW620 cell proliferation; conditions: Homo sapiens
[5] = target: T1, Proto-oncogene tyrosine-protein kinase Src

Dual specificity mitogen-activated protein kinase kinase 1, sequence (Q02750 whole entry): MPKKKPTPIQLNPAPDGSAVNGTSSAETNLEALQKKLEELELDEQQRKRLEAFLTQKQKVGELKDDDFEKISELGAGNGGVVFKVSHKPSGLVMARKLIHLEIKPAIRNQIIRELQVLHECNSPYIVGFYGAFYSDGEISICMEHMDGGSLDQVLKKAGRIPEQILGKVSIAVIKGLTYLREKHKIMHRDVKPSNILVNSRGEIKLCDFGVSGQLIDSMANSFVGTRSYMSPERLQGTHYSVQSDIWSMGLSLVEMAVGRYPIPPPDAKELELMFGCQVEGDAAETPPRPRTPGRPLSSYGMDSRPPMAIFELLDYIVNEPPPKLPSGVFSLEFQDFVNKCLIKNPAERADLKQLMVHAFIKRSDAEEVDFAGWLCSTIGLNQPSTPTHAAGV

SMILES: COc1cc2cc3ncc(C#N)c(Nc4ccc(Oc5ccccc5)cc4)c3cc2cc1OC
- IC50 (LoVo): 670 nM
- IC50 [1]: 10 nM

SMILES: COc1cc2cc3ncc(C#N)c(Nc4ccc(F)c(Cl)c4)c3cc2cc1OC
- IC50 [4]: 18000 nM
- IC50 (SW-620): 1990 nM

SMILES: COc1cc2ncc(C#N)c(Nc3ccc(Cl)cc3Cl)c2cc1OC
- IC50 [5]: 38 nM

Further lines, results first:

- inhibition [2]: 30%
SMILES: COc1ccc2cc3c(Nc4ccc(Cl)cc4Cl)c(C#N)cnc3cc2c1

- inhibition [3]: 10%
SMILES: N#Cc1cnc2cc3cc(O)c(O)cc3cc2c1Nc1ccc(Cl)cc1Cl

- inhibition [2]: 30%
SMILES: COc1ccc2cc3ncc(C#N)c(Nc4ccc(Cl)cc4Cl)c3cc2c1
